Results from PubChem BioAssay AID2610 (Broad Institute, 2010).
pEC50: −log10 of the molar value. Records with an inconclusive call do not appear. The source made the active and inactive calls.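 Rule for the calls: active = EC50 no more than tenfold above the top concentration tested, with valid fit and all samples agreeing; inconclusive = flat fit at 30 to 70% inhibition, poor fit, or split samples; inactive = EC50 beyond tenfold the top concentration tested.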

system: BJeLR fibroblast viability, Alamar Blue fluorescence, 48 h; assay: cytotoxicity toward RAS-transformed BJeLR fibroblasts, dose response, cell-based, alamar blue fluorescence, 48 h, cherrypicked samples (AID 2610);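 note: BJ fibroblasts with hTERT plus SV40 large and small T and HRAS V12; EC50 for loss of viable cells so potency reflects cytotoxic compounds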

COc1cc(NC(=O)c2cccs2)c(OC)cc1NC(=O)CCC(=O)Nc1ccc2ncccc2c1 was tested, and the EC50 was > 13300 nM (inactive).
In the case of O=C(CSc1ccccn1)NCc1ccc2c(c1)OCO2, the EC50 was > 13300 nM (inactive).
For Cc1nc2ccc(CN(C)c3ccc(C(=O)N[C@@H](CCC(=O)O)C(=O)O)s3)cc2c(=O)[nH]1, the EC50 was > 13300 nM (inactive).
For Clc1ccccc1Nc1nnc(-c2ccncc2)s1, the EC50 was > 13300 nM (inactive).
With COc1cccc(NC(=O)n2ncc3c(C)cccc32)c1 the EC50 was > 13300 nM (inactive).
With Cc1nc(N)nc(N)c1CCCc1ccc(Cl)c(Cl)c1 the EC50 was > 13300 nM (inactive).
In the case of Cc1occc1C(=O)N/N=C/c1ccc2c(c1)OCO2, the EC50 was > 13300 nM (inactive).
With CCc1ccc(NC(=O)[C@H](Cc2c[nH]c3ccccc23)NC(=O)[C@@H]2Cc3ccccc3CN2)cc1 the EC50 was > 13300 nM (inactive).
For COc1ccc2nc(NC(=O)c3ccoc3C)sc2c1, the EC50 was > 13300 nM (inactive).
In the case of COc1ccc2[nH]c3c(NCCC4=CCCCC4)ncnc3c2c1, the EC50 was > 13300 nM (inactive).
With O=C(/C=C/c1ccco1)Nc1ccc(Oc2ccccc2)cc1 the EC50 was > 13300 nM (inactive).
Cc1cc(-n2c(SCC(=O)NCCC3=CCCCC3)nc3n[nH]c(C)c3c2=N)ccc1Cl was tested, and the EC50 was > 13300 nM (inactive).
In the case of c1ccc2nc(-c3nc4ccccc4o3)ccc2c1, the EC50 was > 13300 nM (inactive).
In the case of CCN(CC)Cc1c(O)ccc2c1O/C(=C\C=C\c1ccccc1)C2=O, the EC50 was > 13300 nM (inactive).
NS(=O)(=O)c1ccc(NC(=O)c2cc(-c3cccs3)nc3ccccc23)cc1 was tested, and the EC50 was > 13300 nM (inactive).
COc1ccccc1/C=C1\SC(=S)N(CCC(=O)NCCCn2ccnc2)C1=O was tested, and the EC50 was > 13300 nM (inactive).
For Cc1ccc(N=Cc2c(C)[nH]n(-c3nc4ccccc4[nH]3)c2=O)cc1, the EC50 was > 13300 nM (inactive).
In the case of COC(=O)C1=C(C)N(Cc2ccccc2)C(=NCc2cccc(C(F)(F)F)c2)N[C@H]1c1cccc(F)c1, the EC50 was > 13300 nM (inactive).
CC(=O)c1ccccc1OCCOCCOCCOc1ccccc1C(C)=O was tested, and the EC50 was > 13300 nM (inactive).
In the case of Cc1ccc(-c2nn(CC(=O)NCc3cc(-c4nn(C)c(=O)c5ccccc45)ccc3C)c(=O)c3ccccc23)cc1, the EC50 was > 13300 nM (inactive).
With O=C(/C=C/c1ccc(F)cc1)NNC(=O)CCN1CCN(Cc2ccccc2)CC1 the EC50 was > 13300 nM (inactive).
With CNC(=S)N/N=C/c1ccc(-c2ccc(C(=O)O)cc2)o1 the EC50 was > 13300 nM (inactive).
For CCn1c(C)nc2cc(-c3nc4n(n3)Cc3ccccc3-4)ccc21, the EC50 was > 13300 nM (inactive).
For COc1cccc(N2C(N)=NC(N)=NC2(C)C)c1, the EC50 was > 13300 nM (inactive).
For Cc1ccc(-c2nnc(SCC(=O)Nc3ccccc3F)o2)cc1, the EC50 was > 13300 nM (inactive).
CCc1nc(N)nc(N)c1-c1ccc(Cl)cc1 was tested, and the EC50 was > 13300 nM (inactive).
In the case of O=C(c1ccc2c3n(nc2c1)-c1ccccc1CO3)N1CCCCC1, the EC50 was > 13300 nM (inactive).
For S=c1nc[nH]c2nc[nH]c12, the EC50 was > 13300 nM (inactive).
COc1ccc(N2C(=O)/C(=C/c3ccc(C)o3)C(=O)NC2=S)cc1 was tested, and the EC50 was > 13300 nM (inactive).

CCN1CCc2c(sc(NC(=O)c3cc4ccccc4cc3OC)c2C(N)=O)C1 and CCN1C/C(=C/c2ccc(OC)c(O)c2)C(=O)/C(=C/c2ccc(OC)c(O)c2)C1 are within 0.2 log units of each other in pEC50: 6.23 for the first, 6.33 for the second.

Going from O=C1N(c2ccccc2)C[C@@H]2C[C@@H](c3cc4ccccc4o3)N3CCC[C@@]123 to O=C1SC(Cc2ccccc2)C(=O)N1c1ccccc1 (stereo unspecified), the pEC50 falls from 6.21 to 5.63 (0.58 log units).

First: C#CCOc1ccc(C2C3=C(COC3=O)Nc3cc4c(cc32)OCO4)cc1OC (stereo unspecified)
Second: COc1cc(C2c3cc4c(cc3C(OC3OC5COC(c6cccs6)OC5C(O)C3O)C3COC(=O)C23)OCO4)cc(OC)c1O (stereo unspecified)
The pEC50 of the first is higher: > 6.98 for the first, 6.89 for the second.

First: COC(=O)C1CC23C=CCN4CCC5(c6ccccc6NC15C2C)C43 (stereo unspecified)
Second: COC(=O)C1CN(C#N)N(c2ccc(Cl)cc2)C12c1ccccc1-c1ccccc12 (stereo unspecified)
The pEC50 of the first is higher: > 6.98 for the first, 6.25 for the second. The first is the more potent here.

First: COc1cc2c(cc1OC)C(c1cc(Br)ccc1F)N(C(=O)CCl)CC2 (stereo unspecified)
Second: COc1cc2c(c(OC)c1OC)-c1ccc(N(C)CC(OC)OC)c(=O)cc1[C@@H](NC(C)=O)CC2
The pEC50 of the first is 0.86 log units lower: 5.88 for the first, 6.74 for the second.

Going from CC(C)[C@]12O[C@H]1[C@@H]1O[C@]13[C@]1(O[C@H]1C[C@H]1C4=C(CC[C@@]13C)C(=O)OC4)[C@@H]2O to C[C@@H]1C[C@H]2OC(=O)C3(CO3)[C@H]2[C@H](O)[C@]2(C)C(=O)C3OC3[C@@H]12 (stereo partly specified), the pEC50 falls from > 6.98 to 5.55.

Going from c1cnc2c(c1)ccc1cccnc12 to O=C(Sc1cccc2cccnc12)c1ccccc1Br, the pEC50 rises from 5.25 to 6.47 (1.22 log units).

Going from O=Cc1cc2ccccc2nc1SCc1ccc(Cl)cc1 to COc1ccc(S(=O)(=O)N2c3cc(Cl)ccc3Oc3nc4ccccc4nc32)cc1, the pEC50 falls from > 6.98 to 6.71. The first is the more potent here.

CCOc1ccc2c(c1)C(C)=CC(C)(C)N2S(=O)(=O)c1ccc(NC(C)=O)cc1 and COc1ccc(NC(=O)C(=O)NCC2CCCN2S(=O)(=O)c2ccc(C)cc2)cc1 (stereo unspecified) cannot be ordered by pEC50: > 6.98 for the first, > 6.98 for the second.

CCc1ccc(/C=C2/SC(=S)N(CCC(=O)Nc3cccnc3)C2=O)cc1 and CCc1ccc(/C=C2/SC(=S)N(CCC(=O)NCCCN3CCOCC3)C2=O)cc1 are within 0.2 log units of each other in pEC50: 5.56 for the first, 5.62 for the second.

Compared with CCCC(=O)OCCNc1cc(Sc2nccn2C)c2nonc2c1[N+](=O)[O-], CCOC(=O)C1CCN(S(=O)(=O)c2c(Cl)ccc3nonc23)CC1 is 0.79 log units higher in pEC50: 5.60 for the first, 6.39 for the second.

Compared with CCCc1sc(N/N=C/c2ccccn2)nc1-c1ccc(F)cc1, C(=N\Nc1nncc2ccccc12)/c1ccccn1 is 0.39 log units lower in pEC50: 5.87 for the first, 5.48 for the second.

Going from COc1ccc(N/C=C/C(=O)c2cc(OC)c(OC)c(OC)c2)cc1 to COc1ccc(C(=O)N/N=C(\C)c2ccccn2)cc1OC, the pEC50 falls from 6.69 to 6.10 (0.59 log units).

Going from CCCCCN=C(N)N/N=C/c1c[nH]c2ccc(OC)cc12 to CCCCCOc1ccc(Br)cc1/C(C)=N/NC1=NCCN1, the pEC50 rises from 5.53 to 6.16 (0.63 log units).

COc1ccc(C(=O)c2cc([N+](=O)[O-])ccc2N2CCOCC2)cc1 and CCOc1ccc(C(=O)c2cc([N+](=O)[O-])ccc2N2CCOCC2)cc1 cannot be ordered by pEC50: > 6.98 for the first, > 6.98 for the second.

C/C(=N\Nc1nc2ccccc2[nH]1)c1ccccn1 and Oc1c(N=Nc2ccccn2)ccc2ccccc12 are within 0.2 log units of each other in pEC50: 6.78 for the first, 6.62 for the second.

Compared with Nc1nc(F)nc2c1ncn2[C@@H]1O[C@H](CO)[C@@H](O)[C@H]1O, O=C1C=C(c2cccs2)C[C@H](c2ccccc2)[C@H]1n1nnc([N+](=O)[O-])n1 is higher in pEC50: 6.82 for the first, > 6.98 for the second.

Compared with CCCOc1ccc(C(=O)C(CCC(CNCC)C(=O)c2ccc(OCCC)cc2)CNCC)cc1 (stereo unspecified), CCCC(=O)Nc1ccc(C(=O)N/N=C/c2ccc([N+](=O)[O-])o2)cc1 is higher in pEC50: 6.20 for the first, > 7.31 for the second.

Cc1cccnc1Nc1nc(-c2ccccn2)cs1 and Cc1ccc(C(=O)Sc2cccccc2=O)cc1 cannot be ordered by pEC50: > 6.85 for the first, > 7.20 for the second.

First: O=C(Cc1ccc([N+](=O)[O-])cc1)N/N=C/c1ccc([N+](=O)[O-])o1
Second: N#CCc1ccc(NC(=O)/C=C/c2ccc([N+](=O)[O-])o2)cc1
The pEC50 of the first is 0.51 log units lower: 5.45 for the first, 5.96 for the second.

Compared with CC1CCCCC1N(C)C1CCN(C(=O)CNC(=O)/C=C/c2cccc(Cl)c2)CC1 (stereo unspecified), COc1ccc(C(C(=O)NC2CCCCC2)N(C(=O)CCl)c2ccc(C)cc2)cc1 (stereo unspecified) is 0.45 log units higher in pEC50: 5.89 for the first, 6.34 for the second.

Going from COc1ccc(S(=O)(=O)N2CCOCC2)cc1NC(=O)CCNC(=O)c1ccc(Br)cc1 to COc1cccc(C(=O)Nc2ccc(N3CCCC3)cc2)c1, the pEC50 falls from 6.36 to 5.71 (0.65 log units). The first is the more potent here.

Going from CC1=CC(=O)C=C(C)C1=NOc1ccccc1[N+](=O)[O-] to CC1=CC(=O)C=C(C)C1=NOS(=O)(=O)c1ccccc1, the pEC50 falls from 6.17 to 5.52 (0.65 log units).

N#CC(C#N)=NNc1ccc(-n2ccc(C(F)(F)F)n2)cc1 and C[C@@H]1C=CC(=O)O[C@@H]1c1ccc(C(F)(F)F)cc1 are within 0.2 log units of each other in pEC50: 5.58 for the first, 5.71 for the second.

First: N#Cc1c(NC(=O)/C=C/c2ccco2)sc2c1CCCC2
Second: O=C(/C=C\c1ccco1)Nc1cc([N+](=O)[O-])ccc1F
The pEC50 of the first is higher: > 6.98 for the first, 6.59 for the second.

Compared with COc1cccc(/C=C2\SC(=S)N(CCCC(=O)N(CCO)c3ccccc3)C2=O)c1, CCN(CC)CCN1C(=O)/C(=C\c2ccc(Cl)c([N+](=O)[O-])c2)SC1=Nc1ccc(OC)cc1 is 0.65 log units higher in pEC50: 5.60 for the first, 6.25 for the second.

First: COc1ccc(OC)c2c1C(=O)C(Cl)=C(Cl)C2=O
Second: COc1ccccc1-c1nnc2sc(-c3ccc(N(C)C)cc3)nn12
The pEC50 of the first is lower: 5.53 for the first, > 6.98 for the second.

Compared with O=C(N/N=C/c1cc2c3c(c1O)CCCN3CCC2)c1ccccc1O, COc1ccc(/C=N\NC(=O)c2cccc(F)c2)cc1COc1ccccc1 is higher in pEC50: 6.12 for the first, > 6.98 for the second.

First: N#CC1=C(N)Oc2cc(N)ccc2C1c1cccc(Br)c1 (stereo unspecified)
Second: C[C@@H]1C=CC(=O)O[C@@H]1c1ccc(Cl)cc1
The pEC50 of the first is 1.12 log units higher: 6.50 for the first, 5.38 for the second.

CCCCc1c(C)c(C#N)c2nc3ccccc3n2c1Cl and Cn1c(/C=C/c2ccc([N+](=O)[O-])o2)nc2ccccc2c1=O are within 0.2 log units of each other in pEC50: 6.23 for the first, 6.26 for the second.

Going from O=C(NCc1cccnc1)c1ccc(-c2cc3ccccc3oc2=O)cc1 to O=S(=O)(c1ccc(NC(=S)NCc2cccnc2)cc1)N1CCCCC1, the pEC50 rises from 5.87 to > 6.88.

First: Cc1cccc(N2CCN(C(=S)Nc3ccc4nc(N5CCN(C)CC5)cc(C)c4c3)CC2)c1C
Second: COc1cccc(N2CCN(C(=O)c3ccc(CS(=O)c4ccc(C)cc4)o3)CC2)c1 (stereo unspecified)
The pEC50 of the first is 0.72 log units lower: 6.06 for the first, 6.78 for the second.

Going from CC(C)c1cc(C(=O)N/N=C/C(Br)=C/c2ccccc2)n[nH]1 to CCN1/C(=C/C(C)=C/c2sc3ccccc3[n+]2CC)Sc2ccccc21, the pEC50 rises from 6.02 to 6.82 (0.80 log units). The second is the more potent here.

Going from CC1C/C(=C/c2ccncc2)C(=O)/C(=C/c2ccncc2)C1 (stereo unspecified) to Cc1cccc(NS(=O)(=O)c2ccc(-c3cnc(C4CC4)o3)cc2)c1C, the pEC50 rises from 6.40 to > 6.98.

First: CCN1/C(=C/c2ccc3ccccc3[n+]2CC)C=Cc2ccccc21
Second: CCCCCCCCCC[n+]1cccc2c3ccccc3ccc21
The pEC50 of the first is 1.04 log units higher: 6.14 for the first, 5.10 for the second.

Going from Cc1ccc(C2=NN(C(=O)CCl)C(c3ccco3)C2)o1 (stereo unspecified) to CC(C)(C)c1ccc(-n2nc(C#N)c(Cl)cc2=O)cc1, the pEC50 rises from 5.80 to 6.02 (0.22 log units). The second is the more potent here.

Compared with O=C(CCl)N(CCCNC(=O)C(F)(F)F)c1ccc([N+](=O)[O-])cc1, COC(=O)C[C@]1(C(=O)OC)CN(C#N)N(c2ccc(Cl)cc2)C12c1ccccc1-c1ccccc12 is 0.25 log units lower in pEC50: 6.37 for the first, 6.12 for the second. The first is the more potent here.

Going from Cc1onc(C(=O)N2CCN(C(c3ccccc3)c3ccccc3)CC2)c1[N+](=O)[O-] to COc1ccc2[nH]c(=O)c(CN(Cc3cccs3)S(=O)(=O)c3cccc4nsnc34)cc2c1, the pEC50 falls from 6.12 to 5.84 (0.28 log units).

C=C1C(=O)O[C@@H]2C[C@@H](C)[C@H]3C=CC(=O)[C@]3(O)C[C@@H]12 was tested, and the pEC50 was 5.34.
